Test results reported in US6486326B2, “iso-CBI and iso-CI analogs of CC-1065 duocarmycins” (The Scripps Research Institute, priority 1997, dated 2002).

What was measured:
w836 DNA (146 bp) = test: DNA alkylation selectivity and efficiency, thermally-induced strand cleavage of w836 DNA; type: biochemical
Procedure: FIG. 6 illustsrates thermally-induced strand cleavage of w836 DNA (146 bp, nucleotide nos. 5189-91): DNA-agent incubation for 24 h ((−)-iso-CBI-TMI) at 25° C., removal of unbound agent and 30 min of thermolysis (100° C.), followed by denaturing 8% PAGE and autoradiography; lane 1, control DNA; lanes 2-5, Sanger G, C, A, and T sequencing reactions; lanes 6-8 (−)-iso-CBI-TMI ([…] to 1×10^−5 M); lanes 9-10, (+)-duocarmycin SA (1×10^−5 to 1×10^−6 M); lanes 11-12, (+)-iso-CBI-TMI (1×10^−2 and 1×10^−3).
DNA Alkylation Selectivity and Efficiency: The DNA alkylation properties of the agents were examined within w794 and w836 duplex DNA for which comparative results are available for related agents. (Boger, D. L., et al., J. Am. Chem. Soc. 1994, 116, 11335; Boger, D. L., et al., J. Am. Chem. Soc. 1994, 116, 6461; and Boger, D. L., et al., J. Am. Chem. Soc. 1995, 117, 11647) The alkylation site identification and the assessment of the relative selectivity among the available sites were obtained by thermally-induced strand cleavage of the singly 5′ end-labeled duplex DNA after exposure to the agents. […]

[1] = tested on: w794 DNA (SV40 DNA segment, 144 bp); conditions: from earlier studies (refs 10, 11); cited from earlier work

Row | Compound | DNA alkylation sites / selectivity (w836 DNA (146 bp)) | DNA alkylation efficiency, less efficient than duocarmycin SA [1]
1 | COc1cc2cc(C(=O)N3CC4CC45C(=O)c4ccccc4C=C35)[nH]c2c(OC)c1OC (single isomer, unassigned; (+)) [(+)-iso-CBI-TMI, 2-[(5,6,7-Trimethoxyindol-2-yl)carbonyl]-1,2,9,9a-tetrahydrocyclopropa[c]benzo[f]indol-8-one] | selectivity identical to that of ent-(-duocarmycin SA | 
2 | COC(=O)[C@]1(C)NC2=C(C1=O)[C@@]13C[C@@H]1CN(C(=O)c1cc4cc(OC)c(OC)c(OC)c4[nH]1)C3=CC2=O [duocarmycin A] |  | ca. 10 ×
